Measurements from article PMC11508620, “Assessing the Potential of 1,2,3-Triazole-Dihydropyrimidinone Hybrids Against Cholinesterases: In Silico, In Vitro, and In Vivo Studies” (International Journal of Molecular Sciences, 2024).
Where two headings read alike, the source gives them in different places.

How the values were obtained:
[1] = molecular target: T1, electrophorus electricus AChE (eeAChE) (Electrophorus electricus, UniProt O42275); test: biochemical; conditions: [S] = 121 µM; 0.1 M phosphate buffer pH 8.0, 25 °C; mean ± SD
T1 construct: purified enzymes of animal origin, namely electrophorus electricus AChE (eeAChE) and equine serum BuChE (eqBuChE); purchased Sigma–Aldrich; host or cells: electric eel (animal origin)
Method: In order to evaluate the inhibitory activity against cholinesterase enzymes (AChE and BuChE), well-established in vitro models were used—purified enzymes of animal origin, namely electrophorus electricus AChE (eeAChE) and equine serum BuChE (eqBuChE). Hybrids A1–3 and B1–5 (Figure 3) were evaluated in vitro for cholinesterase inhibition using Ellman’s colorimetric method. […] The values are expressed as the mean ± standard deviation (SD).
The enzymatic activity of electrophorus electricus AChE (eeAChE) and equine serum BuChE (eqBuCHE) was assessed using the Ellman colorimetric assay, with minor modifications. […] Enzyme kinetics were monitored using UV-Vis spectroscopy using 0.875 mM 5,5′-dithiobis(2-nitrobenzoic acid) (DTNB) (Ellman’s reagent) as a chromogenic agent.
For this purpose, GraphPad Prism 8.02 software was used to plot %I vs. [I] (5 different concentrations) via a non-linear regression.

[2] = molecular target: equine serum BuChE (eqBuChE) (Equus caballus, UniProt P81908); test: biochemical; type: biochemical; conditions: for IC50: [S] = 112 µM, 0.1 M phosphate buffer pH 8.0, 25 °C, mean ± SD; for Ki: eqBuChE
[3] = molecular target: T2, eqBuChE (Equus caballus, UniProt P81908); test: STD-NMR study with eqBuChE; type: binding, equine; conditions: hybrid 2.5 mM, eqBuChE 2.5 μM
T2 construct: purified enzymes of animal origin, namely electrophorus electricus AChE (eeAChE) and equine serum BuChE (eqBuChE); purchased Sigma–Aldrich; host or cells: equine serum
Method: STD-NMR is a very useful validation technique for docking studies, which we have used previously with success.
The NMR spectroscopy experiments were performed on a Bruker Avance III 400 MHz spectrometer equipped with a 5 mm broadband (PABBO BB/19F-1H/D Z-GRD) resonance probe head. The STD-NMR experiments were realized according to our established method. Basically, NMR and STD-NMR experiments were carried out with solvent suppression and a 10 ms spinlock filter after the 90◦ pulse to reduce residual signals from the protein. For selective saturation, cascades of Gaussian pulses with a length of 50 ms and 40–60 dB of attenuation were employed, with an interpulse delay of 1 ms. The on-resonance and off-resonance frequencies were set to 0 and 12,000 Hz, respectively. STD-NMR controls were performed using the ligand itself. Blank experiments were performed to guarantee the absence of direct saturation of the ligand proton signals. The relaxation delay was properly adjusted so that the experiment time length was kept constant at 6.5 s. Water suppression at 1880 Hz (4.7 ppm) was conducted. Specifically, the saturation time to obtain the STD buildup curves was recorded at 0.25, 0.5, 1, 2, 3, 4, and 5 s. A 5 μM eqBuChE solution was prepared in a D2O. Five mM stock solutions were prepared for hybrids A1 and B4. […]. The final concentrations of ligand and enzyme were […], respectively.

[4] = tested on: Artemia salina; test: Artemia salina lethal toxicity assay; type: in vivo; conditions: 24 h
Method: (§1) Artemia salina was used for in vivo general toxicity assessment of the compounds A1–3 and B1–5.
(§2) The ARTOXKIT M protocol was used. The percentage of dyed nauplii of Artemia salina, grown in the presence of variable concentrations of the inhibitor compounds (A1–3 and B1–5) (0.01 to 100 µM).
(§3) Saline water with 1% DMSO was used as a blank.
(§4) In parallel, a K2Cr2O7 test was performed as quality control.

[5] = FRAP antioxidant assay; conditions: for Antioxidant capacity, FRAP method: 6–200 µM; for Trolox Equivalent Antioxidant Capacity (TEAC), FRAP method: at 200 μM, compared to Trolox
[6] = Artemia salina lethal toxicity assay; type: in vivo; conditions: in vivo
Method: as §1, §2, §3, §4

[7] = tested on: eqBuChE; conditions: cited from earlier work
[8] = tested on: AChE; conditions: cited from earlier work
[9] = tested on: BuChE; conditions: cited from earlier work

T2 sequence (P81908 whole entry): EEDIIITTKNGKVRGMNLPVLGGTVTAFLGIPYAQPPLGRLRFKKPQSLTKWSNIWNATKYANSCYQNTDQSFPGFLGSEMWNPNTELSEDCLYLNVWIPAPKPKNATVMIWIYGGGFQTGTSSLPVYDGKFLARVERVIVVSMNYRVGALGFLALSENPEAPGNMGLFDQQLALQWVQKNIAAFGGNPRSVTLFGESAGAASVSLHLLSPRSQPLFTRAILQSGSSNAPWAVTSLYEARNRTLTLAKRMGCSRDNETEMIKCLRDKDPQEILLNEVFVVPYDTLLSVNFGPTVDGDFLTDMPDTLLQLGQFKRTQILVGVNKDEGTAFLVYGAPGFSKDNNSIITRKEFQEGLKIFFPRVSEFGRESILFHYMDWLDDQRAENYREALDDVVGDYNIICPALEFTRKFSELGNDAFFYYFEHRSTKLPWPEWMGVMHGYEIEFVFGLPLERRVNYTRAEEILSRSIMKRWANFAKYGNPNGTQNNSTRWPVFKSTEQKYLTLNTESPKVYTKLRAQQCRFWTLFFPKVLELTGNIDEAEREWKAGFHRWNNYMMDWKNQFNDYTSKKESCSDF
equine serum BuChE (eqBuChE), sequence (P81908 whole entry): as above
T1 sequence (O42275 24-633): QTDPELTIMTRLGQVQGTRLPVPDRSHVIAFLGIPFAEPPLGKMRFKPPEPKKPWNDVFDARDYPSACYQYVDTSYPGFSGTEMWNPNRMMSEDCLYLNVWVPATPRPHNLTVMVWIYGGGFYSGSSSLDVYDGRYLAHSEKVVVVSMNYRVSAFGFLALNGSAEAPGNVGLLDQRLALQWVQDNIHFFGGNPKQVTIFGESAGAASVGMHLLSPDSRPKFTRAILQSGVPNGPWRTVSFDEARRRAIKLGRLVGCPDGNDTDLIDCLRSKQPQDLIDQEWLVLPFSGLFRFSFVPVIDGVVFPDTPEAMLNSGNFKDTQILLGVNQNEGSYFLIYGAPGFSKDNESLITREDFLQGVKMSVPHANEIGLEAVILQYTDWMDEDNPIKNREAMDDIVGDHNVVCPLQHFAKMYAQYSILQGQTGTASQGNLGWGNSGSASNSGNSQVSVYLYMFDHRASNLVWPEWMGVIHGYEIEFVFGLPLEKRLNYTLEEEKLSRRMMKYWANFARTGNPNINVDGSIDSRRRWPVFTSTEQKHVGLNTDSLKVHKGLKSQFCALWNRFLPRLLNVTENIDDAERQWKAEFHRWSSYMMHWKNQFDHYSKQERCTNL

CC1=C(n2cc(-c3ccccc3)nn2)C(c2ccccc2)NC(=O)N1 (centres unmarked) [Hybrid A1, 6-Methyl-4-phenyl-5-(4-phenyl-1,2,3-triazol-1-yl)-3,4-dihydropyrimidin-2-one]
IC50 [1]: > 100 µM | IC50 [2]: 12 ± 2 µM | STD-NMR attenuation, H3 ([3]; 3 s saturation, H9 set to 100%): 87% | STD-NMR attenuation, H7 ([3]; 3 s saturation, H9 set to 100%): 88% | NOEC (No Observed Effect Concentration) [4]: 200 µM

CC1=C(n2cc(-c3ccccc3)nn2)C(c2ccc(Cl)cc2)NC(=O)N1 (centres unmarked) [Hybrid A2, 4-(4-Chlorophenyl)-6-methyl-5-(4-phenyl-1,2,3-triazol-1-yl)-3,4-dihydropyrimidin-2-one]
IC50 [1]: > 100 µM | IC50 [2]: 24 ± 1 µM | NOEC (No Observed Effect Concentration) [4]: 200 µM

CC1=C(n2cc(-c3ccccc3)nn2)C(c2ccc(OCc3ccccc3)cc2)NC(=O)N1 (centres unmarked) [Hybrid A3, 4-(4-(Benzyloxy)phenyl)-6-methyl-5-(4-phenyl-1,2,3-triazol-1-yl)-3,4-dihydropyrimidin-2-one]
IC50 [1]: > 100 µM | IC50 [2]: > 100 µM | NOEC (No Observed Effect Concentration) [4]: 200 µM

O=C1NC(Cn2cc(-c3ccccc3)nn2)=C(n2cc(-c3ccccc3)nn2)C(c2ccccc2)N1 (centres unmarked) [Hybrid B1, 4-Phenyl-5-(4-phenyl-1,2,3-triazol-1-yl)-6-((4-phenyl-1,2,3-triazol-1-yl)methyl)-3,4-dihydropyrimidin-2-one]
IC50 [1]: > 100 µM | IC50 [2]: 53 ± 4 µM | Antioxidant capacity, FRAP method [5]: null values | LC50 at 24 h [6]: > 200 µM | NOEC (No Observed Effect Concentration) [4]: 200 µM

O=C1NC(Cn2cc(-c3ccc(Br)cc3)nn2)=C(n2cc(-c3ccccc3)nn2)C(c2ccccc2)N1 (centres unmarked) [Hybrid B2, 6-((4-(4-Bromophenyl)-1,2,3-triazol-1-yl)methyl)-4-phenyl-5-(4-phenyl-1,2,3-triazol-1-yl)-3,4-dihydropyrimidin-2-one]
IC50 [1]: > 100 µM | IC50 [2]: > 100 µM | Antioxidant capacity, FRAP method [5]: null values | LC50 at 24 h [6]: > 200 µM | LOEC (Lowest Observed Effect Concentration) [4]: 100 µM | NOEC (No Observed Effect Concentration) [4]: 1 µM

O=C1NC(Cn2cc(C3CC3)nn2)=C(n2cc(-c3ccccc3)nn2)C(c2ccccc2)N1 (centres unmarked) [Hybrid B3, 6-((4-Cyclopropyl-1H-1,2,3-triazol-1-yl)methyl)-4-phenyl-5-(4-phenyl-1,2,3-triazol-1-yl)-3,4-dihydropyrimidin-2-one]
IC50 [1]: > 100 µM | IC50 [2]: 58 ± 3 µM | Antioxidant capacity, FRAP method [5]: some potential to reduce Fe(III) to Fe(II) | Trolox Equivalent Antioxidant Capacity (TEAC), FRAP method [5]: 0.257 | NOEC (No Observed Effect Concentration) [4]: 200 µM

O=C1NC(Cn2cc(CN3C(=O)C(=O)c4ccccc43)nn2)=C(n2cc(-c3ccccc3)nn2)C(c2ccccc2)N1 (centres unmarked) [Hybrid B4, 1-((1-((2-Oxo-6-phenyl-5-(4-phenyl-1,2,3-triazol-1-yl)-1,2,3,6-tetrahydropyrimidin-4-yl)methyl)-1,2,3-triazol-4-yl)methyl)indoline-2,3-dione]
IC50 [1]: > 100 µM | IC50 [2]: 1 ± 0.1 µM | Ki ([2]; inhibition constant for binding to the enzyme-substrate complex, read-out: Kib (converted)): 1.4 µM | Ki ([2]; inhibition constant for binding to the free enzyme, read-out: Kia (converted)): 1.1 µM | Type of inhibition of eqBuChE ([2]; methods of Dixon and Cornish-Bowden): mixed mode of inhibition | STD-NMR attenuation, H11 and H13 of the CH2 groups ([3]; 4 s saturation, H16 set to 100%): 33% | Antioxidant capacity, FRAP method [5]: null values | NOEC (No Observed Effect Concentration) [4]: 200 µM

O=C1NC(Cn2cc(-c3ccccc3)nn2)=C(n2cc(-c3ccccc3)nn2)C(c2ccc(OCc3ccccc3)cc2)N1 (centres unmarked) [Hybrid B5, 4-(4-(Benzyloxy)phenyl)-5-(4-phenyl-1,2,3-triazol-1-yl)-6-((4-phenyl-1,2,3-triazol-1-yl)methyl)-3,4-dihydropyrimidin-2-one]
IC50 [1]: > 100 µM | IC50 [2]: > 100 µM | Antioxidant capacity, FRAP method [5]: some potential to reduce Fe(III) to Fe(II) | Trolox Equivalent Antioxidant Capacity (TEAC), FRAP method [5]: 0.216 | NOEC (No Observed Effect Concentration) [4]: 200 µM

[K+].[K+].[O]=[Cr](=[O])([O-])[O][Cr](=[O])(=[O])[O-] [Hybrid K2Cr2O7, K2Cr2O7, reference compound]
LC50 ([4]; reference test): 23.6 µg/mL | LOEC (Lowest Observed Effect Concentration) ([4]; reference test): 18 mg/L | NOEC (No Observed Effect Concentration) ([4]; reference test): 10 mg/L

CC(C)[C@@H]1CC[C@@H](C)C[C@@H]1n1cc(CN2C(=O)C(=O)c3ccccc32)nn1 [III]
IC50 [7]: 0.46 µM

O=c1ccc2ccc(OCCCCCn3cc(CNc4c5c(nc6ccccc46)CCCC5)nn3)cc2o1 [II]
IC50 [8]: 0.095 µM | IC50 [9]: 0.006 µM

COc1cc(OC)c2c(=O)c(OCCCCn3cc(CN4C(=O)C(=O)c5ccccc54)nn3)c(-c3ccc(OC)c(OC)c3)oc2c1 [IV]
IC50 [7]: 11.2 µM

CC(=O)c1ccc(OCc2cccc(C(F)(F)F)c2)cc1OCc1cn(CCc2c[nH]c3ccccc23)nn1 [I]
IC50 [9]: 0.00013 µM

CCOC(=O)C1=C(C[Se]C(=O)c2ccc(C)cc2)NC(=O)NC1c1ccccc1 (centres unmarked) [VI]
IC50 [8]: 7.21 µM

COc1ccc(C2NC(=O)NC(CCc3ccc(O)cc3)=C2C(=O)CCc2ccc(O)cc2)cc1 (centres unmarked) [V]
IC50 [8]: 1.34 µM
